Assay results reported in patent US20040005354A1, “Oral trimethobenzamide formulations and methods” (King Pharmaceuticals, Inc., priority 2002, published 2004).

Legend:
[1] = Safety assessment (adverse events, laboratory tests) in the four-way crossover study; format: in vivo, human (healthy subjects)
Source text: Seventy-four healthy, non-smoking, male & female subjects, 18-65 years old were enrolled in this study. A total of 68 subjects completed all the requirements of the protocol. There were no enrollment violations. However, nine of the 74 subjects began the study during the third period of the initial group of subjects. All 74 subjects who received at least one dose of study medication were included in the safety analysis.
This study was a single center, randomized, open-label, 4-way crossover study in healthy subjects. Dosing was administered in the fasted state. Seventy-four (74) subjects were randomized into the study. All seventy-four subjects received one or more doses of study medication and are therefore included in the safety assessment. On Treatment Day 1 of the first treatment period, each subject was randomized to receive one of four possible study treatment sequences. The treatment groups consisted of the four treatments administered sequentially as DCAB, ADBC, BACD or CBDA. These treatments are shown below.
A signed informed consent was obtained from each subject. For screening purposes, the following procedures were required of each subject and were performed by the clinical site within 30 days prior to the study: a complete physical examination including a medical history, vital signs, clinical laboratory safety tests on blood and urine, medications taken prior to and during the study, and a serum pregnancy test for female subjects.
During the treatments, temperature, blood pressure, heart rate and respiratory rate were monitored as a safety measure. A physical examination and clinical laboratory tests were repeated at the completion of the study. Subjects were observed and questioned throughout the study for the occurrence of any adverse events.
A total of 28 adverse events (AEs) were experienced; 27 were treatment emergent. Twenty-one (21) of these were assessed as related to study treatment. All related AEs are known to occur with trimethobenzamide and were primarily mild or moderate in intensity. One (1) severe AE occurred in one subject which was judged as unrelated to study treatment-severe pharyngitis. […] A summary of treatment emergent adverse events (AEs) is presented in Table 6 using the preferred medical term.

[2] = in 48-72 hr; cited from earlier work

N-[2-(dimethylamino)-ethoxy]-3,4,5-trimethoxybenzamide hydrochloride [trimethobenzamide hydrochloride]
NAUSEA, subjects % ([1]; sequence B A C D (N = 18)): 0.0% | NAUSEA, subjects n ([1]; sequence B A C D (N = 18)): 0 | Number of Subject With At Least one AE, % ([1]; sequence B A C D (N = 18)): 22.2% | Number of Subject With No AE, % ([1]; sequence B A C D (N = 18)): 77.8% | PARESTHESIA, subjects % ([1]; sequence B A C D (N = 18)): 11.1% | PARESTHESIA, subjects n ([1]; sequence B A C D (N = 18)): 2 | PHARYNGITIS, subjects % ([1]; sequence B A C D (N = 18)): 0.0% | PHARYNGITIS, subjects n ([1]; sequence B A C D (N = 18)): 0 | RASH, subjects % ([1]; sequence B A C D (N = 18)): 5.6% | RASH, subjects n ([1]; sequence B A C D (N = 18)): 1 | ABDOMINAL PAIN, subjects % ([1]; sequence C B D A (N = 18)): 0.0% | ABDOMINAL PAIN, subjects n ([1]; sequence C B D A (N = 18)): 0 | CONJUNCTIVITIS, subjects % ([1]; sequence C B D A (N = 18)): 0.0% | CONJUNCTIVITIS, subjects n ([1]; sequence C B D A (N = 18)): 0 | DIARRHEA, subjects % ([1]; sequence C B D A (N = 18)): 5.6% | DIARRHEA, subjects n ([1]; sequence C B D A (N = 18)): 1 | DIZZINESS, subjects % ([1]; sequence C B D A (N = 18)): 0.0% | DIZZINESS, subjects n ([1]; sequence C B D A (N = 18)): 0 | EDEMA, PALMAR, subjects % ([1]; sequence C B D A (N = 18)): 0.0% | EDEMA, PALMAR, subjects n ([1]; sequence C B D A (N = 18)): 0 | ERYTHEMA, EXTERNAL NOSE, subjects % ([1]; sequence C B D A (N = 18)): 5.6% | ERYTHEMA, EXTERNAL NOSE, subjects n ([1]; sequence C B D A (N = 18)): 1 | ERYTHEMA, PALMAR, subjects % ([1]; sequence C B D A (N = 18)): 0.0% | ERYTHEMA, PALMAR, subjects n ([1]; sequence C B D A (N = 18)): 0 | HEADACHE, subjects % ([1]; sequence C B D A (N = 18)): 16.7% | HEADACHE, subjects n ([1]; sequence C B D A (N = 18)): 3 | HYPOTONIA, subjects % ([1]; sequence C B D A (N = 18)): 5.6% | HYPOTONIA, subjects n ([1]; sequence C B D A (N = 18)): 1 | INJECTION SITE REACTION, subjects % ([1]; sequence C B D A (N = 18)): 0.0% | INJECTION SITE REACTION, subjects n ([1]; sequence C B D A (N = 18)): 0 | LARYNGISMUS, subjects % ([1]; sequence C B D A (N = 18)): 0.0% | LARYNGISMUS, subjects n ([1]; sequence C B D A (N = 18)): 0 | LEG CRAMPS, subjects % ([1]; sequence C B D A (N = 18)): 0.0% | LEG CRAMPS, subjects n ([1]; sequence C B D A (N = 18)): 0 | NAUSEA AND VOMITING, subjects % ([1]; sequence C B D A (N = 18)): 0.0% | NAUSEA AND VOMITING, subjects n ([1]; sequence C B D A (N = 18)): 0 | NAUSEA, subjects % ([1]; sequence C B D A (N = 18)): 0.0% | NAUSEA, subjects n ([1]; sequence C B D A (N = 18)): 0 | Number of Subject With At Least one AE, % ([1]; sequence C B D A (N = 18)): 22.2% | Number of Subject With No AE, % ([1]; sequence C B D A (N = 18)): 77.8% | PARESTHESIA, subjects % ([1]; sequence C B D A (N = 18)): 0.0% | PARESTHESIA, subjects n ([1]; sequence C B D A (N = 18)): 0 | PHARYNGITIS, subjects % ([1]; sequence C B D A (N = 18)): 0.0% | PHARYNGITIS, subjects n ([1]; sequence C B D A (N = 18)): 0 | RASH, subjects % ([1]; sequence C B D A (N = 18)): 0.0% | RASH, subjects n ([1]; sequence C B D A (N = 18)): 0 | ABDOMINAL PAIN, subjects % ([1]; sequence D C A B (N = 18)): 0.0% | ABDOMINAL PAIN, subjects n ([1]; sequence D C A B (N = 18)): 0 | CONJUNCTIVITIS, subjects % ([1]; sequence D C A B (N = 18)): 0.0% | CONJUNCTIVITIS, subjects n ([1]; sequence D C A B (N = 18)): 0 | DIARRHEA, subjects % ([1]; sequence D C A B (N = 18)): 0.0% | DIARRHEA, subjects n ([1]; sequence D C A B (N = 18)): 0 | DIZZINESS, subjects % ([1]; sequence D C A B (N = 18)): 0.0% | DIZZINESS, subjects n ([1]; sequence D C A B (N = 18)): 0 | EDEMA, PALMAR, subjects % ([1]; sequence D C A B (N = 18)): 0.0% | EDEMA, PALMAR, subjects n ([1]; sequence D C A B (N = 18)): 0 | ERYTHEMA, EXTERNAL NOSE, subjects % ([1]; sequence D C A B (N = 18)): 0.0% | ERYTHEMA, EXTERNAL NOSE, subjects n ([1]; sequence D C A B (N = 18)): 0 | ERYTHEMA, PALMAR, subjects % ([1]; sequence D C A B (N = 18)): 0.0% | ERYTHEMA, PALMAR, subjects n ([1]; sequence D C A B (N = 18)): 0 | HEADACHE, subjects % ([1]; sequence D C A B (N = 18)): 16.7% | HEADACHE, subjects n ([1]; sequence D C A B (N = 18)): 3 | HYPOTONIA, subjects % ([1]; sequence D C A B (N = 18)): 0.0% | HYPOTONIA, subjects n ([1]; sequence D C A B (N = 18)): 0 | INJECTION SITE REACTION, subjects % ([1]; sequence D C A B (N = 18)): 0.0% | INJECTION SITE REACTION, subjects n ([1]; sequence D C A B (N = 18)): 0 | LARYNGISMUS, subjects % ([1]; sequence D C A B (N = 18)): 0.0% | LARYNGISMUS, subjects n ([1]; sequence D C A B (N = 18)): 0 | LEG CRAMPS, subjects % ([1]; sequence D C A B (N = 18)): 5.6% | LEG CRAMPS, subjects n ([1]; sequence D C A B (N = 18)): 1 | NAUSEA AND VOMITING, subjects % ([1]; sequence D C A B (N = 18)): 0.0% | NAUSEA AND VOMITING, subjects n ([1]; sequence D C A B (N = 18)): 0 | NAUSEA, subjects % ([1]; sequence D C A B (N = 18)): 0.0% | NAUSEA, subjects n ([1]; sequence D C A B (N = 18)): 0 | Number of Subject With At Least one AE, % ([1]; sequence D C A B (N = 18)): 27.8% | Number of Subject With No AE, % ([1]; sequence D C A B (N = 18)): 72.2% | PARESTHESIA, subjects % ([1]; sequence D C A B (N = 18)): 5.6% | PARESTHESIA, subjects n ([1]; sequence D C A B (N = 18)): 1 | PHARYNGITIS, subjects % ([1]; sequence D C A B (N = 18)): 0.0% | PHARYNGITIS, subjects n ([1]; sequence D C A B (N = 18)): 0 | RASH, subjects % ([1]; sequence D C A B (N = 18)): 0.0% | RASH, subjects n ([1]; sequence D C A B (N = 18)): 0 | drug excreted unchanged in the urine [2]: 30%-50%
